The text below walks through data of patent US20250250227A1, “AMINO LIPID COMPOUND, PREPARATION METHOD THEREFOR, COMPOSITION THEREOF AND USE THEREOF” (SHENZHEN SHENXIN BIOTECHNOLOGY CO., LTD., priority 2022, published 2025).

The subject of one data set is Female BALB/c mice. The data set can be described thus: IFN-γ Elispot cellular immunity test, spleen lymphocytes of mice immunized with IN002.5.1 mRNA LNP. It counts as in vivo. Particulars: 50 μL IM, spleen on 7th day after immunization, FIG. 2-4.
The nature of data set [1]: Preparation and characterisation of mRNA-encapsulating lipid nanoparticle (encapsulation efficiency, particle size). Particulars: LNP encapsulating Fluc mRNA; Lipid:DSPC:CHO-HP:M-DMG-2000 48:10:40.5:1.5. It counts as physicochemical. The method in brief:
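Fluc mRNA in sodium acetate buffer mixed with ethanolic amino lipid:DSPC:CHO-HP:M-DMG-2000 (48:10:40.5:1.5 molar) by microfluidics, mRNA:lipid mass ratio 1:10, then dialysed 2 h against Tris-8% sucrose and 0.22 μm filtered. Final mRNA 0.2 g/L; particle size and encapsulation efficiency measured.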

Regarding `CCCCCCC(CCCCCC)OC(=O)CCCCCCCCC(CCCCCCCCC(=O)OC(CCCCCC)CCCCCC)OC(=O)N(CCCN(C)C)CCC(=O)OCCCC` [Compound 264], in the data set with Female BALB/c mice, the “Cellular immunity effect (IFN-γ Elispot) compared to ALC0315” value is given as “better cellular immunity effect”. Besides, the Encapsulation efficiency in data set [1] was found to be 94.12%.
Turning to `CCCCCCCOC(=O)CCN(CCCN(C)C)C(=O)OC(CCCCCCCCC(=O)OC(CCCCCC)CCCCCC)CCCCCCCCC(=O)OC(CCCCCC)CCCCCC` [Compound 267], the “Cellular immunity effect (IFN-γ Elispot) compared to ALC0315” value with Female BALB/c mice is listed as “better cellular immunity effect”. In addition, the Encapsulation efficiency in data set [1] is given as 93.13%.
Taken in the same sequence, the figures for `CCCCCCC(CCCCCC)OC(=O)CCCCCCCCC(CCCCCCCCC(=O)OC(CCCCCC)CCCCCC)OC(=O)N(CCCN(C)C)CC(=O)OCCCC` [Compound 270] were “better cellular immunity effect” and 93.46%.
In the case of `CCCCCCOC(=O)CN(CCCN(C)C)C(=O)OC(CCCCCCCCC(=O)OC(CCCCCC)CCCCCC)CCCCCCCCC(=O)OC(CCCCCC)CCCCCC` [Compound 272], in the data set with Female BALB/c mice, the “Cellular immunity effect (IFN-γ Elispot) compared to ALC0315” value is on record as “better cellular immunity effect”. Further, the Encapsulation efficiency in data set [1] worked out at 93.96%.
`CCCCCCCOC(=O)CN(CCCN(C)C)C(=O)OC(CCCCCCCCC(=O)OC(CCCCCC)CCCCCC)CCCCCCCCC(=O)OC(CCCCCC)CCCCCC` [Compound 273]: in the data set with Female BALB/c mice, the “Cellular immunity effect (IFN-γ Elispot) compared to ALC0315” value is on record as “better cellular immunity effect”. The same compound gave an Encapsulation efficiency in data set [1] of 87.42%.
